Target: T1, MsPat (MSMEG_5458) (Mycolicibacterium smegmatis, UniProt A0R3F9)
T1 sequence (A0R3F9 1-333): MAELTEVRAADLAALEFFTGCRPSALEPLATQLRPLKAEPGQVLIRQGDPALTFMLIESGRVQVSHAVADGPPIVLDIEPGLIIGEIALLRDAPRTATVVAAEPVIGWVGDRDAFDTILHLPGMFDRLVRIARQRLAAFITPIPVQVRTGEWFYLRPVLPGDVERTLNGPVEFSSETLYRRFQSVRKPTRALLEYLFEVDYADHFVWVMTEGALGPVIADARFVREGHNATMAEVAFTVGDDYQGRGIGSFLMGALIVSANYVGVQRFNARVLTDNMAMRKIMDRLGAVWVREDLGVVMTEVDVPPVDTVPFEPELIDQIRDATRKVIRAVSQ
Assay: fluorescent labeling of ACS and time-dependent ACS inactivation
Type: biochemical
Conditions: 1 mM cGMP in place of cAMP; weak activator, allosteric

Nc1nc2c(ncn2[C@@H]2O[C@@H]3COP(=O)(O)O[C@H]3[C@H]2O)c(=O)[nH]1 [cGMP]
fluorescent labeling of ACS and time-dependent ACS inactivation: Much weaker labeling of ACS was observed when cAMP was replaced with cGMP

Source: article PMC3125470 (Biochemistry, 2011)
